Reference: patent US20160193216A1 (Nimbus Iris, Inc., priority 2012, published 2016)

Target: T1, IRAK4 (Homo sapiens, UniProt Q9NWZ3)
T1 sequence (Q9NWZ3 1-460): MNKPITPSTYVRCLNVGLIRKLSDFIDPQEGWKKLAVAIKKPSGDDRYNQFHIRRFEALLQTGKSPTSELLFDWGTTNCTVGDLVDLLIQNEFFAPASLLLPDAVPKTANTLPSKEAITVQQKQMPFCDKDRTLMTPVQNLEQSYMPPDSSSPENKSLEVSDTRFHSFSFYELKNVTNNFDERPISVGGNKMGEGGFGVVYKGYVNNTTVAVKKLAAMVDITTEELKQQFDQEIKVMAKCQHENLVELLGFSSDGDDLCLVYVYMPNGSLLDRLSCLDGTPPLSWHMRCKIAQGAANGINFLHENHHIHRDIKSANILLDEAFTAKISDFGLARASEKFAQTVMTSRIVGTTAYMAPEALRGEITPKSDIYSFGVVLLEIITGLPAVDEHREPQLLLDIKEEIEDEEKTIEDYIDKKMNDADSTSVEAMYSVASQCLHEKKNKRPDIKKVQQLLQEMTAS
Test: IRAK-4 activity inhibition assay (Caliper)
Assay type: biochemical
Details: 37 μM ATP, 3.5 nM IRAK4

Row | SMILES | IC50 [µM]
1 | NC(=O)C(O)C[C@H]1CCc2sc3ncnc(N[C@H]4CC[C@H](N5CCOCC5)CC4)c3c21 (mixture of isomers) [Compound I-118, 2-hydroxy-3-((R)-4-(((1r,4R)-4-morpholinocyclohexyl)amino)-6,7-dihydro-5H-cyclopenta[4,5]thieno[2,3-d]pyrimidin-5-yl)propanamide] | < 5
2 | CN[C@H]1CC[C@H](Oc2ncnc3sc4c(c23)CN(C(C)=O)CC4)CC1 [Compound I-202, 1-(3-[[4-(methylamino)cyclohexyl]oxy]-8-thia-4,6,12-triazatricyclo[7.4.0.0[2,7]]trideca-1 (9),2,4,6-tetraen-12-yl)ethan-1-one] | 5 to 20
3 | CC[C@]1(N(C)C)CC[C@H](Oc2ncnc3sc4c(c23)[C@@H](CC(N)=O)CC4)CC1 [Compound I-95, 2-[(3R)-12-[[4-(dimethylamino)-4-ethylcyclohexyl]oxy]-7-thia-9,11-diazatricyclo[6.4.0.0[2,6]]dodeca-1(8),2(6),9,11-tetraen-3-yl]acetamide] | < 5
4 | CN(C)[C@H]1CC[C@H](Oc2ncnc3sc4c(c23)CN(C(N)=O)CC4)CC1 [Compound I-201, 3-[[4-(dimethylamino)cyclohexyl]oxy]-8-thia-4,6, 12-triazatricyclo[7.4.0.0[2,7]]trideca-1(9),2,4,6-tetraene-12-carboxamide] | < 5
5 | CN(C)[C@H]1CC[C@H](Oc2ncnc3sc4c(c23)[C@@H](C[C@H](O)C2CCCO2)CC4)CC1 (stereo partly drawn) [Compound I-89, (1S)-2-((R)-4-(((1r,4R)-4-(dimethylamino)cyclohexyl)oxy)-6,7-dihydro-5H-cyclopenta[4,5]thieno[2,3-d]pyrimidin-5-yl)-1-(tetrahydrofuran-2-yl)ethanol] | < 5
6 | CC(=O)N1CCc2sc3ncnc(O[C@H]4CC[C@H](N(C)C)CC4)c3c2C1 [Compound I-167] | < 5
7 | CCSCC1CCc2sc3ncnc(O[C@H]4CC[C@H](N(C)C)CC4)c3c21 (some centres unmarked) [Compound I-39, 4-([3-[(ethylsulfanyl)methyl]-7-thia-9,11-diazatricyclo[6.4.0.0[2,6]]dodeca-1(12),2(6),8,10-tetraen-12-yl]oxy)-N,N-dimethylcyclohexan-1-amine] | < 5
8 | CC[C@]1(N(C)C)CC[C@H](Oc2ncnc3sc4c(c23)[C@@H](C[C@H](C)O)CC4)CC1 [Compound I-103, (2S)-1-[(3R)-12-[[4-(dimethylamino)-4-ethylcyclohexyl]oxy]-7-thia-9,11-diazatricyclo[6.4.0.0[2,6]]dodeca-1(12),2(6),8,10-tetraen-3-yl]propan-2-ol] | 5 to 20
9 | CCN[C@H]1CC[C@H](Oc2ncnc3sc4c(c23)[C@@H](C[C@@H](O)C(N)=O)CC4)CC1 [Compound I-139, (2R)-3-[(3R)-12-[[4-(ethylamino)cyclohexyl]oxy]-7-thia-9,11-diazatricyclo[6.4.0.0[2,6]]dodeca-1(8),2(6),9,11-tetraen-3-yl]-2-hydroxypropanamide] | < 5
10 | CN(C)[C@]1(C)CC[C@@H](Oc2ncnc3sc4c(c23)[C@@H](CC(N)=O)CC4)CC1 [Compound I-155, 2-[(3R)-12-[[4-(dimethylamino)-4-methylcyclohexyl]oxy]-7-thia-9,11-diazatricyclo[6.4.0.0[2,6]]dodeca-1(8),2(6),9,11-tetraen-3-yl]acetamide] | < 5
11 | CC[C@@H](C[C@H]1CCc2sc3ncnc(O[C@H]4CC[C@H](N(C)C)CC4)c3c21)OC [Compound I-119, (1R,4r)-4-(((R)-5-((S)-2-methoxybutyl)-6,7-dihydro-5H-cyclopenta[4,5]thieno[2,3-d]pyrimidin-4-yl)oxy)-N,N-dimethylcyclohexanamine] | < 5
12 | CN(C)[C@H]1CC[C@H](Oc2ncnc3sc4c(c23)CN(S(N)(=O)=O)CC4)CC1 [Compound I-238, 3-[[4-(dimethylamino)cyclohexyl]oxy]-8-thia-4,6, 12-triazatricyclo[7.4.0.0[2,7]]trideca-1(9),2(7),3,5-tetraene-12-sulfonamide] | < 5
13 | c1nc(O[C@H]2CC[C@H](N3CCOCC3)CC2)c2c3c(sc2n1)CNC3 [Compound I-192, 12-[[4-(morpholin-4-yl)cyclohexyl]oxy]-7-thia-4,9, 11-triazatricyclo[6.4.0.0[2,6]]dodeca-1(12),2(6),8, 10-tetraene] | < 5
14 | CN(CC(=O)N1CCCC1)[C@H]1CC[C@H](Nc2ncnc3sc4c(c23)[C@@H](CC(N)=O)CC4)CC1 [Compound I-123, 2-[(3R)-12-[(4-[methyl[2-oxo-2-(pyrrolidin-1-yl)ethyl]amino]cyclohexyl)amino]-7-thia-9,11-diazatricyclo[6.4.0.0[2,6]]dodeca-1(8),2(6),9,11-tetraen-3-yl]acetamide] | < 5
15 | CN(C)[C@H]1CC[C@H](Nc2ncnc3sc4c(c23)C(C)(C)CC4)CC1 [Compound I-6, (1r,4r)-N1-(5,5-dimethyl-6,7-dihydro-5H-cyclopenta[4,5]thieno[2,3-d]pyrimidin-4-yl)-N4,N4-dimethylcyclohexane-1,4-diamine] | 5 to 20
16 | CN(C)[C@H]1CC[C@H](Oc2ncnc3sc4c(c23)C(CC#N)CC4)CC1 (some centres unmarked) [Compound I-22, 2-(12-[[4-(dimethylamino)cyclohexyl]oxy]-7-thia-9,11-diazatricyclo[6.4.0.0[2,6]]dodeca-1(8),2(6),9,11-tetraen-3-yl)acetonitrile] | 5 to 20

Row | SMILES | IC50 [µM]
17 | CCOC(=O)C1CCc2sc3ncnc(O[C@H]4CC[C@H](N(C)C)CC4)c3c21 (some centres unmarked) [Compound I-4] | 20 to 50
18 | CN(C)[C@H]1CC[C@H](Oc2ncnc3sc4c(c23)[C@@H](CC(=O)Nc2ccc(F)cn2)CC4)CC1 [Compound I-37, 2-[(3R)-12-[[4-(dimethylamino)cyclohexyl]oxy]-7-thia-9,11-diazatricyclo[6.4.0.0[2,6]]-dodeca-1(8),2(6),9,11-tetraen-3-yl]-N-(5-fluoropyridin-2-yl)acetamide] | < 5
19 | CC[S@@+]([O-])C[C@H]1CCc2sc3ncnc(O[C@H]4CC[C@H](N(C)C)CC4)c3c21 (single isomer, unassigned) [Compound I-46] | < 5
20 | CCOCCC1CCc2sc3ncnc(O[C@H]4CC[C@H](N(C)C)CC4)c3c21 (some centres unmarked) [Compound I-31, 4-[[3-(2-ethoxyethyl)-7-thia-9,11-diazatricyclo[6.4.0.0[2,6]]dodeca-1(8),2(6),9,11-tetraen-12-yl]oxy]-N,N-dimethylcyclohexan-1-amine] | 5 to 20
21 | CC[C@@H](O)C[C@H]1CCc2sc3ncnc(N[C@H]4CC[C@H](N(C)C)CC4)c3c21 [Compound I-52] | < 5
22 | CN(C)[C@H]1CC[C@H](Oc2ncnc3sc4c(c23)[C@@H](CC(O)c2ncco2)CC4)CC1 (stereo in doubt) [Compound I-62, (1S)-2-[(3R)-12-[[4-(dimethylamino)cyclohexyl]oxy]-7-thia-9,11-diazatricyclo[6.4.0.0[2,6]]dodeca-1(8),2(6),9,11-tetraen-3-yl]-1-(1,3-oxazol-2-yl)ethan-1-ol] | < 5
23 | CCS(=O)(=O)N1CCc2sc3ncnc(N[C@H]4CC[C@H](N5CCOCC5)CC4)c3c2C1 [Compound I-181, 12-(ethanesulfonyl)-N-[4-(morpholin-4-yl)cyclohexyl]-8-thia-4,6, 12-triazatricyclo[7.4.0.0[2,7]]trideca-1(9),2(7),3,5-tetraen-3-amine] | 5 to 20
24 | CN(C)[C@H]1CC[C@H](Nc2ncnc3sc4c(c23)C(CO)CC4)CC1 (some centres unmarked) [Compound I-3] | < 5
25 | CC[S@+]([O-])C[C@H]1CCc2sc3ncnc(O[C@H]4CC[C@H](N(C)C)CC4)c3c21 (single isomer, unassigned) [Compound I-45] | < 5
26 | CN(C)[C@H]1CC[C@H](Nc2ncnc3sc4c(c23)C(C(=O)NCCCO)CC4)CC1 (some centres unmarked) [Compound I-28, 12-[[4-(dimethylamino)cyclohexyl]amino]-N-(3-hydroxypropyl)-7-thia-9,11-diazatricyclo[6.4.0.0̂[2,6]]dodeca-1(12),2(6),8,10-tetraene-3-carboxamide] | 20 to 50
27 | CC[C@H](O)C[C@H]1CCc2sc3ncnc(O[C@H]4CC[C@](CC)(N(C)C)CC4)c3c21 [Compound I-104, (2S)-1-[(3R)-12-[[4-(dimethylamino)-4-ethylcyclohexyl]oxy]-7-thia-9,11-diazatricyclo[6.4.0.0[2,6]]dodeca-1(8),2(6),9,11-tetraen-3-yl]butan-2-ol] | 5 to 20
28 | CC[C@@H](C[C@H]1CCc2sc3ncnc(N[C@H]4CC[C@H](N(C)C)CC4)c3c21)OC [Compound I-148, (1r,4R)-N1-((R)-5-((S)-2-methoxybutyl)-6,7-dihydro-5H-cyclopenta[4,5]thieno[2,3-d]pyrimidin-4-yl)-N4,N4-dimethylcyclohexane-1,4-diamine] | < 5
29 | COCCN[C@H]1CC[C@H](Oc2ncnc3sc4c(c23)[C@@H](CC(N)=O)CC4)CC1 [Compound I-133, 2-[(3R)-12-([4-[(2-methoxyethyl)amino]cyclohexyl]oxy)-7-thia-9,11-diazatricyclo[6.4.0.0[2,6]]dodeca-1(12),2(6),8,10-tetraen-3-yl]acetamide] | < 5
30 | C[C@@H](O)C[C@H]1CCc2sc3ncnc(N[C@H]4CC[C@H](N(C)C)CC4)c3c21 [Compound I-53] | < 5
31 | C[C@H](O)C[C@H]1CCc2sc3ncnc(N[C@H]4CC[C@H](N(C)C)CC4)c3c21 [Compound I-55] | < 5
32 | CN[C@H]1CC[C@H](Oc2ncnc3sc4c(c23)[C@@H](CC(=O)NC[C@@H](C)O)CC4)CC1 (stereo in doubt) [Compound I-151, N-[(2R)-2-hydroxypropyl]-2-[(3R)-12-[[4-(methylamino)cyclohexyl]oxy]-7-thia-9,11-diazatricyclo[6.4.0.0[2,6]]dodeca-1(12),2(6),8,10-tetraen-3-yl]acetamide] | 5 to 20
